Assay results taken from US20250114466A1, “ANTIFOLATE LINKER-DRUGS AND ANTIBODY-DRUG CONJUGATES” (BYONDIS B.V., priority 2021, published 2025).

Assays:
Format in all cases: cell-based
[1] = test system: SW-620 cells; assay: In vitro cell viability assay (CellTiter-Glo, 6 days), SW-620; settings: Homo sapiens, SW-620, 144 h, free antifolate drug, Table 1a
Method: (§1) FaDu, BxPC-3, HeLa, MV4-11, and RAJI cell lines were obtained from Deutsche Sammlung von Mikroorganismen und Zellkulturen ([…], Germany). Jurkat NucLight Red cells were obtained from Essen BioScience Inc. (Ann Arbor, MI, USA). SK-BR-3 and SK-OV-3 cells were cultured in McCoys 5A medium (Lonza; Walkersville, MD, USA) supplemented with 10% v/w Fetal Bovine Serum (FBS), Heat-inactivated (HI) (Gibco-Life Technologies; Carlsbad, CA) and 80 U/mL Pen/Strep (Gibco-Life Technologies), at 37° C. in a humidified incubator under 5% CO2 atmosphere. SW-620 cells were similarly maintained in RPMI 1640 medium (Lonza), containing 10% v/w FBS HI and 80 U/mL Pen/Strep. […]
(§2) After an overnight incubation, 10 serial log 10 dilutions of the free drugs were made in DMSO (Sigma-Aldrich). […] Cell viability was assessed after 6 days using a luminescent assay kit (CellTiter-Glo™ (CTG), Promega Corporation) according to the manufacturer's instructions. Percentage cell survival was calculated by dividing the measured luminescence for each free drug or ADC according to the concentration with the average mean of untreated cells (1% or 0.1% DMSO control (for free drugs) or 100% complete growth medium (for ADCs)) multiplied by 100. […]

[2] = test system: SK-BR-3 cells; assay: In vitro cell viability assay (CellTiter-Glo, 6 days), SK-BR-3; settings: Homo sapiens, SK-BR-3, 144 h, free antifolate drug, Table 1a
Method: as §1, §2

[3] = test system: A-549 cells; assay: In vitro cell viability assay (CellTiter-Glo, 6 days), A-549; settings: Homo sapiens, A549, 144 h, free antifolate drug, Table 1a
Method: Human tumor cell lines SK-BR-3, SW-620, A-549, BT-474, Jurkat Clone E6-1, AU-565, and SK-OV-3 were obtained from American Type Culture Collection (Rockville, MD, USA). FaDu, BxPC-3, HeLa, MV4-11, and RAJI cell lines were obtained from Deutsche Sammlung von Mikroorganismen und Zellkulturen ([…], Germany). Jurkat NucLight Red cells were obtained from Essen BioScience Inc. (Ann Arbor, MI, USA). […]
Cells in complete growth medium were plated in 96-well plates (90 μL/well) and incubated at 37° C., 5% CO2 at the following cell densities: 6500 SK-BR-3, 4000 SW-620, 2500 A-549, 10000 BT-474, 3000 Jurkat Clone E6-1, 5000 AU-565, 1250 FaDu, 1250 BxPC-3, 1000 HeLa, 7500 MV4-11, 1000 RAJI, 3000 Jurkat NucLight Red, and 4000 SK-OV-3 cells per well. […] Cell viability was assessed after 6 days using a luminescent assay kit (CellTiter-Glo™ (CTG), Promega Corporation) according to the manufacturer's instructions. Percentage cell survival was calculated by dividing the measured luminescence for each free drug or ADC according to the concentration with the average mean of untreated cells (1% or 0.1% DMSO control (for free drugs) or 100% complete growth medium (for ADCs)) multiplied by 100. […]

[4] = test system: Human tumor cell lines; assay: In vitro cell viability assays, free antifolate drugs, overall comparison; settings: for antifolate activity compared with talotrexin: Tables 1a-1d
Method: Human tumor cell lines SK-BR-3, SW-620, A-549, BT-474, Jurkat Clone E6-1, AU-565, and SK-OV-3 were obtained from American Type Culture Collection (Rockville, MD, USA). FaDu, BxPC-3, HeLa, MV4-11, and RAJI cell lines were obtained from Deutsche Sammlung von Mikroorganismen und Zellkulturen ([…], Germany). Jurkat NucLight Red cells were obtained from Essen BioScience Inc. (Ann Arbor, MI, USA). SK-BR-3 and SK-OV-3 cells were cultured in McCoys 5A medium (Lonza; Walkersville, MD, USA) supplemented with 10% v/w Fetal Bovine Serum (FBS), Heat-inactivated (HI) (Gibco-Life Technologies; Carlsbad, CA) and 80 U/mL Pen/Strep (Gibco-Life Technologies), at 37° C. in a humidified incubator under 5% CO2 atmosphere. SW-620 cells were similarly maintained in RPMI 1640 medium (Lonza), containing 10% v/w FBS HI and 80 U/mL Pen/Strep. A-549 cells were similarly maintained in F-12K Nutrient Mixture (1×) (Gibco-Life Technologies) media supplemented with 80 U/mL Pen/Strep and 5% v/w FBS, which was Qualified (Q) (Gibco-Life Technologies). BT-474 and AU-565 cells were similarly maintained in RPMI 1640 medium (Lonza), containing 10% v/w FBS, which was Qualified (Q) (Gibco-Life Technologies), and 80 U/mL Pen/Strep. Jurkat Clone E6-1, BxPC-3, HeLa, MV4-11, and RAJI cells were similarly maintained in RPMI 1640 medium (Lonza), containing 10% v/w FBS HI and 80 U/mL Pen/Strep. Jurkat NucLight Red cells were similarly maintained in RPMI 1640 medium (Lonza), containing 10% v/w FBS HI, 80 U/mL Pen/Strep and 0.5 μg/mL Puromycin (Gibco-Life Technologies). FaDu cells were cultured in EMEM medium (Lonza) supplemented with 10% v/w FBS HI (Gibco-Life Technologies), 1× GlutaMAX (Gibco-Life Technologies), and 80 U/mL Pen/Strep (Gibco-Life Technologies), at 37° C. in a humidified incubator under 5% CO2 atmosphere.
Cells in complete growth medium were plated in 96-well plates (90 μL/well) and incubated at 37° C., 5% CO2 at the following cell densities: 6500 SK-BR-3, 4000 SW-620, 2500 A-549, 10000 BT-474, 3000 Jurkat Clone E6-1, 5000 AU-565, 1250 FaDu, 1250 BxPC-3, 1000 HeLa, 7500 MV4-11, 1000 RAJI, 3000 Jurkat NucLight Red, and 4000 SK-OV-3 cells per well. After an overnight incubation, 10 serial log 10 dilutions of the free drugs were made in DMSO (Sigma-Aldrich). These free drug dose-response curves were 10-times further diluted in complete growth medium. For the ADCs according to the invention 10 serial log 10 dilutions were made in complete growth medium. 10 μL of a composition comprising a free drug or an ADC according to the invention was added to the assay plate (final DMSO content for free drugs was 1%). […] Cell viability was assessed after 6 days using a luminescent assay kit (CellTiter-Glo™ (CTG), Promega Corporation) according to the manufacturer's instructions. Percentage cell survival was calculated by dividing the measured luminescence for each free drug or ADC according to the concentration with the average mean of untreated cells (1% or 0.1% DMSO control (for free drugs) or 100% complete growth medium (for ADCs)) multiplied by 100.
Curves were fitted by non-linear regression using the sigmoidal dose-response equation with variable slope (four parameters) using curve-fitting software (GraphPad Prism, version 9.4.0 for Windows, GraphPad, San Diego, CA or Electronic Laboratory Notebook (ELN) add-in BioAssay, version 19.1.0.0218, Perkin Elmer, Waltham, MA). Relative IC50 values were calculated as the concentration that gives a response halfway between bottom and top of the curve, when using a 4-parameter logistic fit. Data were reported as mean IC50 value of at least one experiment performed in duplicate.

Structure (SMILES) | antifolate activity compared with talotrexin [4] | further results
Nc1nc(N)c2nc(CNc3ccc(C(=O)N[C@@H](CCCNC(=O)c4ccccc4C(=O)O)C(=O)O)cc3)cnc2n1 [Talotrexin] |  | IC50 [1]: 1.74 nM; IC50 [2]: 1.83 nM; IC50 [3]: 1.7 nM
Nc1ccc(C(=O)NCCC[C@H](NC(=O)c2ccc(CCc3cnc4nc(N)nc(N)c4n3)cc2)C(=O)O)cc1 [XX7, (S)-5-(4-Aminobenzamido)-2-(4-(2-(2,4-diaminopteridin-6-yl)ethyl)benzamido) pentanoic acid] | less active than talotrexin | 
CN(Cc1cnc2nc(N)nc(N)c2n1)c1ccc(C(=O)N[C@@H](CCCNC(=O)c2ccc(N)cc2)C(=O)O)cc1 [XX12, (S)-5-(4-aminobenzamido)-2-(4-(((2,4-diaminopteridin-6-yl)methyl)(methyl)amino)benzamido)pentanoic acid] | less active than talotrexin | 
Nc1ccc(C(=O)NCCC[C@H](NC(=O)c2ccc(CCc3ccc4nc(N)nc(N)c4c3)cc2)C(=O)O)cc1 [XJ4, (S)-5-(4-Aminobenzamido)-2-(4-(2-(2,4-diaminoquinazolin-6-yl)ethyl)benzamido)pentanoic acid] | less active than talotrexin | 
Nc1ccc(C(=O)NCCC[C@H](NC(=O)c2ccc(NCc3ccc4nc(N)nc(N)c4c3Cl)cc2)C(=O)O)c(-c2nnn[nH]2)c1 [XT110, (S)-5-(4-Amino-2-(1H-tetrazol-5-yl)benzamido)-2-(4-(((2,4-diamino-5-chloroquinazolin-6-yl)methyl)amino)benzamido)pentanoic acid] |  | antifolate activity compared with XX35 ([4]; 5-chloroquinazoline-2,4-diamine instead of pteridine-2,4-diamine): strongly increased the antifolate activity
Nc1ccc(C(=O)NCCC[C@H](NC(=O)c2ccc(NCc3cnc4nc(N)nc(N)c4n3)cc2)C(=O)O)cc1 [XT35, (S)-5-(4-Aminobenzamido)-2-(4-(((2,4-diaminopteridin-6-yl)methyl)amino)benzamido) pentanoic acid] | less active than talotrexin | 
[N-]=[N+]=Nc1ccc(C(=O)NCCC[C@H](NC(=O)c2ccc(CCc3cnc4nc(N)nc(N)c4n3)cc2)C(=O)O)cc1 [XX5, (S)-5-(4-Azidobenzamido)-2-(4-(2-(2,4-diaminopteridin-6-yl)ethyl)benzamido) pentanoic acid] | less active than talotrexin | 
